The subject of this experiment is P. falciparum 3D7 growth, pLDH absorbance. Put plainly: P. falciparum 3D7 growth inhibition, dose response, strain 3D7 (AID 2305).

SMILES strings stand for the structures.

With `CCOc1ccc(CCC(=O)O)cc1OCC`, the 50% inhibitory concentration (IC50) (as a rule, the midpoint of a concentration-inhibition curve) is 1030 nM. `Cc1cc(N[C@@H](CC(C)C)C(=O)NCc2cccc(F)c2)nc(NCCc2ccc(F)cc2)n1` came in with a concentration for half-maximal inhibition (IC50) of 1470 nM. In turn, `C=CCN1C(=O)C(C(C)=O)=C(O)C1c1ccccc1` (stereo unspecified) had an IC50 of 50 nM. `Cc1nnsc1C(=O)Nc1cccc(-c2csc(-c3nc4ccccc4[nH]3)c2)c1` registered a half-inhibitory concentration (IC50) of 350 nM. Compared with the last compound, the IC50 is about 7-fold higher. To `COc1ccc2nccc([C@@H](O)CN3CCC(NC(=O)c4ccc(CN5CCN(c6cccc(C)c6)CC5C)cc4)CC3)c2c1` (stereo partly specified) belongs 210 nM; to `Fc1ccc2nc(-c3ccc(-c4ccc(CNCCN5CCNCC5)cc4)s3)[nH]c2c1`, 780 nM; to `CC(C)CNCc1cccc(-c2cccc(CN(CCN(C)C)C(=O)Nc3ccccc3)c2)c1`, 800 nM.

`CS(=O)(=O)c1ccccc1CNC(=O)c1ccc(-c2ccc(-c3nc4ccc(C(F)(F)F)cc4[nH]3)s2)cc1` returned an IC50 of 240 nM.

In turn, `CCN(C(=O)NC)[C@@H]1c2cc(C#N)ccc2OC(C)(C)[C@H]1O` returned a 50% inhibitory concentration (IC50) of 300 nM. To `O=C(NC1CCCCN(Cc2ccccc2O)C1)c1cc(F)cc(F)c1` (stereo unspecified) belongs 1170 nM; to `O=C(CCc1cccnc1)Nc1ccc(-c2cccc(-c3nc4ccc(F)cc4[nH]3)c2)cc1`, 920 nM. Compound `CC(C)NCc1ccc(OCc2cccc(COc3ccc(CNC(C)C)cc3I)c2)c(I)c1` registered an IC50 of 90 nM. The value for `Nc1cc(C=Cc2ccc([N+](=O)[O-])s2)nc2ccccc12` was 760 nM; that for `O=C(Nc1ccc(-c2cccc(-c3nc4ccc(C(F)(F)F)cc4[nH]3)c2)cc1)c1csnn1` was 800 nM; that for `COc1ccc2c(NN=CC=Cc3ccccc3)cc(C)nc2c1` was 840 nM.

`Cc1cccc2[nH]c(-c3cccc(-c4cccc(C(=O)N5CCCCC5CN5CCC(O)C5)c4)c3)nc12` (stereo unspecified) returned an IC50 of 460 nM.

Turning to `O=C(/C=C/c1cc(F)c(F)cc1F)N1CCC(CN2CCC(c3c[nH]c4ccccc34)CC2)CC1`, the concentration for half-maximal inhibition (IC50) was found to be 1000 nM.

Compound `C=CCOC(=O)O[C@@H]1[C@@H](OC(=O)OCC=C)[C@@H](OC)O[C@H](COC(c2ccccc2)(c2ccccc2)c2ccccc2)[C@H]1OC(=O)OCC=C` had an IC50 of 890 nM. `CCNc1cc(C(=O)N[C@@H](Cc2ccccc2)[C@H](O)CNCc2ccc3c(c2)OCCO3)cc(N2CCCCS2(=O)=O)c1`: the concentration for half-maximal inhibition (IC50) was 1350 nM. The value for `COc1cccc(C(=O)[C@H]2C[C@@H]2CN2CC=C(c3c[nH]c4cccc(Br)c34)CC2)c1` was 750 nM. The value for `CCCc1ccc(S(=O)(=O)NC2CCN(c3ccnc(Nc4ccc(OC)cc4)n3)C2)cc1` (stereo unspecified) was 1190 nM; that for `COc1cc(NCCCNC(=O)c2ccc(Cl)c(Cl)c2)nc2ccccc12` was 140 nM; that for `Cc1ccccc1C1CCN(C2CCC(NC(=O)/C=C/c3cccc(C(F)(F)F)c3)CC2)CC1` (stereo unspecified) was 1520 nM. As to `COc1cc(Cc2cnc(N)nc2N)c2ccsc2c1OC`, the half-inhibitory concentration (IC50) was 1070 nM. The IC50 values of the last two compounds are within 1.5-fold of each other. Consider `OCC1CCN(Cc2cccc(-c3ccc(-c4nc5ccc(C(F)(F)F)cc5[nH]4)cc3)c2)CC1`, for which the half-maximal inhibitory concentration (IC50) worked out at 660 nM. The compound `Nc1nc(N)c2cc(Sc3ccc4ccccc4c3)ccc2n1` came in with an IC50 of 20 nM.

On to `CS(=O)(=O)n1c(CN2CCN(c3ncc(C(F)(F)F)cc3Cl)CC2)nc2ccccc21`, for which the IC50 came out at 1060 nM. Against the preceding compound, the IC50 is about 53-fold higher. The value for `Cc1cc(C)cc(N2C(N)=NC(N)=NC2(C)C)c1` was 40 nM. For `COc1ccc(C(=O)O)cc1OCc1ccccc1`, the IC50 is 820 nM. The value for `Cc1[nH]c(C)c(-c2ccc(Oc3cccc(OC(F)(F)F)c3)cc2)c(=O)c1Br` was 20 nM. To `Clc1cccc(C=NNc2ccnc3ccccc23)c1` belongs 850 nM; to `O=C(Nc1cc(F)c(F)c(-c2cccnc2)c1)N1CCc2cc(Cl)c(Cl)cc21`, 840 nM; to `C=C(C)COc1ccc(-c2n[nH]c(C(F)(F)F)c2-c2ccccc2OC)c(O)c1`, 780 nM. Turning to `COc1cc2nc(NCCc3ccccc3)nc(NCCc3ccccc3)c2cc1OC`, the IC50 was determined as 280 nM. This IC50 is about 2.8-fold lower than that of the compound before.

For the compound `c1cc(-c2ccc(CN3CCCC3)cc2)cc(-c2nc3ccccc3[nH]2)c1`, the half-maximal inhibitory concentration (IC50) is 690 nM. Regarding `CCN1CCN(C(=O)NC(C(=O)N2CCCC(COc3ccc(Cc4ccccc4)cc3)C2)c2cccs2)C(=O)C1=O` (stereo unspecified), the half-maximal inhibitory concentration (IC50) worked out at 480 nM. This IC50 and that of the compound before are within 1.5-fold of each other. In turn, `COc1ccc2c(NN=CC=Cc3ccccc3)ccnc2c1` gave a 50% inhibitory concentration (IC50) of 770 nM.

For the compound `S=C(NCC1CCCCC1)NC1CCC(CN2CCC(c3c[nH]c4ccccc34)CC2)CC1` (stereo unspecified), the half-inhibitory concentration (IC50) came to 1110 nM.

As to `CCOC(=O)/C(=N\OC(C)(C)C(=O)NCc1ccc(O)c(O)c1)c1csc(NC(c2ccccc2)(c2ccccc2)c2ccccc2)n1`, the IC50 is 170 nM. Take `CC(=O)NCCNc1nccc(N2CCc3ncnc(Nc4ccc(OCc5ccccn5)c(Cl)c4)c3C2)n1`: the IC50 is 820 nM. Turning to `O=C(N[C@@H](CC1CCCCC1)C(=O)NCc1cccc2ccccc12)c1ccc(O)c(-c2ccc(Cl)c(Cl)c2)c1`, the concentration for half-maximal inhibition (IC50) worked out at 220 nM. `C[C@@H](NC(=O)NC(CCN1CCC2(CC1)CN(S(C)(=O)=O)c1ccccc12)c1ccc(Cl)c(Cl)c1)c1ccccc1` (stereo partly specified): the IC50 was found to be 900 nM. Regarding `COc1c(C2CCN(CCCCNC(=O)c3noc(-c4ccc(C#N)cc4)n3)CC2)ccc2c1CCCC2`, the IC50 worked out at 780 nM.

As for `CN(C)c1ccc2c(c1)Sc1cc(N(C)C)ccc1N2C(=O)c1cccc(C(=O)O)c1`, the half-inhibitory concentration (IC50) was determined as 180 nM. On to `CCc1ccc(C2CCN(CCCCNC(=O)c3ccc(-c4ccc(C#N)cc4)cc3)CC2)c(OCCO)c1`, for which the concentration for half-maximal inhibition (IC50) is 940 nM. Turning to `Cc1ccc2nc3c(cc(C(=O)NCCc4ccccc4)c(=N)n3CCCOC(C)C)c(=O)n2c1`, the concentration for half-maximal inhibition (IC50) came to 890 nM. The IC50 values of the last two compounds are within 1.5-fold of each other. `CCn1c2c(c(=N)c3ccccc31)CCC2` registered an IC50 of 500 nM. To `COc1cc(NCC(O)CNc2cc(OC)c3ccccc3n2)nc2ccccc12` belongs 110 nM; to `COC(=O)c1cccc(CNCc2ccc(-c3cccc(-c4nc5ccc(C(F)(F)F)cc5[nH]4)c3)cc2)c1`, 160 nM; to `Cc1ccc(S(=O)(=O)N(C)c2ccccc2C(=O)Nc2ccccc2Oc2ccccc2)cc1`, 920 nM. The compound `CC(C)(C)c1ccc(NC(=O)c2ccc(CN3CCCN(Cc4ccc(F)cc4)CC3)cc2)cc1` came in with an IC50 of 1110 nM. As for `CC(C)N=C(N)NN=Cc1ccc(Cl)c(Cl)c1`, the IC50 was found to be 530 nM. `COC(=O)c1cccc(NC(=O)NC2CCN(c3ccnc(Nc4cc(OC)c(OC)c(OC)c4)n3)C2)c1` (stereo unspecified) gave an IC50 of 510 nM. `CCCCCCCN1CC[C@@H](CCCc2ccnc3ccc(OC)cc23)[C@@H](CCN)C1`: the IC50 worked out at 750 nM. This IC50 and that of the compound before are within 1.5-fold of each other. To `CC(=O)N(C)c1cccc(C(=O)Nc2cccc(-c3ccc(-c4nc5ccc(C(F)(F)F)cc5[nH]4)cc3)c2)c1` belongs 1000 nM; to `O=C(Cn1c(CCc2cccc(F)c2F)nc(=O)c2ccccc21)N(CCCN1CCCC1)Cc1ccc(-c2ccc(C(F)(F)F)cc2)cc1`, 940 nM; to `O=C(/C=C/c1ccc(F)c(C(F)(F)F)c1)N1CCC(CN2CCC(c3c[nH]c4ccccc34)CC2)CC1`, 920 nM. Compound `O=C(Nc1cccc(F)c1)NC1CCN(c2ccnc3cc(Cl)ccc23)CC1` showed a 50% inhibitory concentration (IC50) of 610 nM. `Cc1cccc(C(=O)NCCCN2CCC(NC(=O)/C=C/c3ccc(Cl)c(Cl)c3)CC2)c1` yielded an IC50 of 1700 nM. Take `Cc1ccccc1C1CCN(C2CCC(NC(=O)/C=C/c3c[nH]c4ccccc34)CC2)CC1` (stereo unspecified): the concentration for half-maximal inhibition (IC50) came to 810 nM. As to `c1ccc2[nH]c(CN(Cc3nc4ccccc4[nH]3)Cc3nc4ccccc4[nH]3)nc2c1`, the concentration for half-maximal inhibition (IC50) was found to be 670 nM.
